Measured values published in publication PMC3454369, “Functional Redundancy of Class I Phosphoinositide 3-Kinase (PI3K) Isoforms in Signaling Growth Factor-Mediated Human Neutrophil Survival” (PLoS ONE, 2012).
Read-outs that look alike come from different tables or passages of the source.

Tests used:
Human neutrophils [1] = test: rhGM-CSF-modulated human neutrophil apoptosis, annexin V/PI flow cytometry; type: cell-based; conditions: rhGM-CSF 10 ng/ml; for Effect on rhGM-CSF-mediated human neutrophil survival: 20 h
Method: To examine the effects of small molecule PI3K inhibitors on rhGM-CSF (10 ng/ml) -modulated apoptosis, neutrophils (5×10^6/ml) were re-suspended in Iscove’s modified Dulbecco medium (IMDM) supplemented with 10% autologous serum, 100 U/mL penicillin and 100 µg/mL streptomycin in non-tissue culture treated flat bottom Falcon Flexiwell plates in a humidified 5% CO2 atmosphere at 37°C.

[2] = tested on: Murine peripheral blood neutrophils; conditions: for Effect on constitutive murine neutrophil apoptosis: no rmGM-CSF, 8 h and 4 h
Human neutrophils [3] = test: Morphologic analysis of human neutrophil apoptosis (light microscopy of cytospins); type: cell-based; conditions: rhGM-CSF 10 ng/ml, 20 h; for Cytoplasmic vacuolation of human neutrophils: light microscopy, PI-103 at 1 µM or above, LY294002 10 µM
PI3K Class I isoforms = tested on: PI3K Class I isoforms; parameters: method as in PMID 20179189; conditions: competitive inhibition; cited from earlier work
[4] = tested on: PKB (Akt) phosphorylation; test: Western blot for rhGM-CSF-induced PKB (Akt Ser473) phosphorylation in human neutrophils; type: cell-based; conditions: 20 min pre-incubation, rhGM-CSF 10 ng/ml 10 min
Method: Neutrophils were suspended at 5×10^6/ml and 0.5 ml aliquots were pre-incubated for 20 minutes with PI3K inhibitors at 37°C prior to treatment with GM-CSF 10 ng/ml for 10 min. The cells were washed with ice-cold phosphate-buffered saline and pelleted and resuspended in 50 µl of cold lysis buffer (20 mM Tris-HCl (pH 7.5), 150 mM NaCl, 1 mM EDTA, 1 mM EGTA, 1% Triton X-100, 2.5 mM sodium pyrophosphate, 1 mM β-glycerophosphate, 1 mM PMSF, 1 mM sodium fluoride, 2 mM sodium orthovanadate, 10 µg/ml leupeptin, 10 µg/ml aprotinin) and incubated on ice for 10 minutes. The Triton-insoluble fraction was pelleted by centrifugation at 10 000 g for 15 min at 4°C. The protein concentration of the supernatant was determined using a colorimetric assay (bicinchoninic acid; BCA, BIO Rad Laboratories). SDS sample buffer was added to each neutrophil lysate and heated to 99°C for 5 min. 30 µg of protein/well was loaded on to each 10% SDS-polyacrylamide gel and subjected to electrophoresis at 150 V and transferred to a PVDF Immobilon membrane using a semi-dry transfer system at 130 mA for 90 minutes. The membrane was blocked for 1 hour with 5% non-fat dry milk in Tris-HCl buffered saline containing 0.1% (w/v) Tween 20 then immunoblotted overnight at 4°C in TBS-Tween-20 with primary monoclonal antibody to total Akt rabbit mAb or Phospho-Akt (Ser^473) rabbit mAb (Cell Signaling Technology 40585 and 9272 respectively) at a dilution of 1∶1000 in TBS-Tween 20 with 5% Bovine Serum Albumin. The membrane was washed three times in TBS-Tween 20 and incubated with ECL HRP-conjugated donkey anti-rabbit IgG (Fab2 fragment; GE Healthcare) at a dilution of 1∶10 000 in TBS-Tween 20 for 1 hour at room temperature. Membranes were developed using ECL-Plus kit (GE Healthcare).
Figure 5 Combined inhibition of all Class IA PI3Ks abrogates rhGM-CSF mediated PKB phosphorylation. […] Western blots from the experiments describe in B. above were scanned and analyzed using the Aida Image Analyzer 3.27 software package. […]

[5] = Cell accessibility of the inhibitor (footnote of Table 3); parameters: key: *: Poor cell accessibility; conditions: footnote mark at the inhibitor's name
p110β = p110β (Homo sapiens, UniProt P42338); test: biochemical
p110δ = p110δ (Homo sapiens, UniProt O00329); test: biochemical
Human neutrophils [6] = test: fMLP-stimulated neutrophil oxidative burst (luminol/HRP chemiluminescence); type: cell-based; conditions: fMLP 100 nM
Method: All PI3K inhibitors were dissolved in dimethyl sulfoxide (DMSO) and stored at −20°C. […] The concentration response curves for NVS-PI3-3 and NVS-PI3-4 on the neutrophil respiratory burst generated as described in [10] are shown in Figure 2.  Figure 2 Effect of NVS-PI3-4 and NVS-PI3-3 on Neutrophil Oxidative Burst. Human neutrophils were suspended at 4×10^6/ml in HBSS at 37°C and either primed with TNFα 10 ng/ml or treated with vehicle control, prior to the addition of NVS-PI3-4 (A) or NVS-PI3-3 (B) at the indicated concentrations. […] Triangular symbols represent TNFα-primed cells; unprimed cells depicted by squares.

p110α = p110α (Homo sapiens, UniProt P42336); test: biochemical
p110γ = p110γ (Homo sapiens, UniProt P48736); test: biochemical
[7] = tested on: Peripheral blood neutrophils from exacerbating COPD patients; test: Ex vivo apoptosis of peripheral blood neutrophils from patients with exacerbation of COPD, annexin V/PI flow cytometry; type: cell-based, human; conditions: 20 hours culture; for Effect on reduced spontaneous apoptosis of neutrophils from exacerbating COPD patients: ex vivo, 20 min pre-incubation
Human neutrophils [8] = test: rhGM-CSF-modulated human neutrophil apoptosis, annexin V/PI flow cytometry; type: cell-based; conditions: no GM-CSF; 20 h (also 6 h); LY294002 10 µM
[9] = inhibitor 3 µM, used individually
[10] = C57BL/6, rmGM-CSF 0.1 ng/ml, 8 hours
[11] = C57BL/6, rmGM-CSF 0.1 ng/ml, 8 hours, concentration-dependent
[12] = inhibitor 1 µM, used individually
[13] = TNFα 10 ng/ml-primed human neutrophils, read-out: Primed IC50, neutrophil oxidative burst
[14] = unprimed human neutrophils, read-out: Unprimed IC50, neutrophil oxidative burst

Sequence of p110β (P42338 whole entry, species assumed): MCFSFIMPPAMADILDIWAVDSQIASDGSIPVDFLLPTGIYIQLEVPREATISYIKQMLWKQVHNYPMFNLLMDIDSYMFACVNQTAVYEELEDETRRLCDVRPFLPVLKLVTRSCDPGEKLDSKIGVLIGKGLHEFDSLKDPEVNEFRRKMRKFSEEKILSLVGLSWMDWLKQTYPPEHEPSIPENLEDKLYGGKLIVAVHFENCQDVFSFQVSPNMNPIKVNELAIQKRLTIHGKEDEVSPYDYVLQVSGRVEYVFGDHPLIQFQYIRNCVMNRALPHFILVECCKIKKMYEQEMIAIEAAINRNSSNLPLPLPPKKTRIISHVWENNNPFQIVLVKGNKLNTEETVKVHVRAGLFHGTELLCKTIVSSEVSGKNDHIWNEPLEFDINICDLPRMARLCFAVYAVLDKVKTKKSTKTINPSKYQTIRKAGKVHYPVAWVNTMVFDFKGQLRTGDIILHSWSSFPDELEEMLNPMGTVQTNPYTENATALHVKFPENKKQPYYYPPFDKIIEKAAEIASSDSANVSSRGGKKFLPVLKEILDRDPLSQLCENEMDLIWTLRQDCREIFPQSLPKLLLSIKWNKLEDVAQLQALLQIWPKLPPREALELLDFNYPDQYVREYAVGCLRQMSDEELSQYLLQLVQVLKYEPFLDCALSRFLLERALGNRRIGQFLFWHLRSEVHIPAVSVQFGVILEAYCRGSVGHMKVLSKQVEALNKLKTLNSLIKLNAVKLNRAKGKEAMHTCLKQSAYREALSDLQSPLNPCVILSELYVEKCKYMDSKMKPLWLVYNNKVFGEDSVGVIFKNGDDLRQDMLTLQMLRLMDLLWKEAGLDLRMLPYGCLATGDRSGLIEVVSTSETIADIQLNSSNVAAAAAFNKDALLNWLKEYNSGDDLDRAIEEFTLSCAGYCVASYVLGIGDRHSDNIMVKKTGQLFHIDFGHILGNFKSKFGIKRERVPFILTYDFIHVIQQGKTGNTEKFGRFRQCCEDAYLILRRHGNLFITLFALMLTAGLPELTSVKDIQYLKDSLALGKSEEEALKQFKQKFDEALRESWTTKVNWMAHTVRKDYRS
Sequence of p110β (P27986 whole entry partner, species assumed): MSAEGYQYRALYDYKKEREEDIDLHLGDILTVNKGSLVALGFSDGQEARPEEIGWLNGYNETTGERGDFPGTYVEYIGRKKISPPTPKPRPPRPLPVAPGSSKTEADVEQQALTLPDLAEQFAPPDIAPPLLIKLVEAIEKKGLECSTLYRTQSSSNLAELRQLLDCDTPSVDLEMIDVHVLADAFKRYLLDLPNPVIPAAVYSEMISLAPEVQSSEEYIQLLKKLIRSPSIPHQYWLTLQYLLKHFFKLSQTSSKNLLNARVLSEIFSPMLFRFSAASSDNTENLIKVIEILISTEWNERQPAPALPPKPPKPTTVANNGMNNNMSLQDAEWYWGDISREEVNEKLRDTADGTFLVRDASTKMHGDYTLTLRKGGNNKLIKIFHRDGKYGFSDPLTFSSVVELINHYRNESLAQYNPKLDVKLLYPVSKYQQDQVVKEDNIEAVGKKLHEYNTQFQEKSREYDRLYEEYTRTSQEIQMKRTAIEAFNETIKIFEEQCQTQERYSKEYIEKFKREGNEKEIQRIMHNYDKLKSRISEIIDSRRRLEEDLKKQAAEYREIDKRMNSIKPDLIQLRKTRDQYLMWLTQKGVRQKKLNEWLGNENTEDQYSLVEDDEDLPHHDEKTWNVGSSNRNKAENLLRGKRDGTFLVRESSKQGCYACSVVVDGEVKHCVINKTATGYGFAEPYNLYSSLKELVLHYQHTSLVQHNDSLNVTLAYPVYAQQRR
Sequence of p110α (P42336 whole entry, species assumed): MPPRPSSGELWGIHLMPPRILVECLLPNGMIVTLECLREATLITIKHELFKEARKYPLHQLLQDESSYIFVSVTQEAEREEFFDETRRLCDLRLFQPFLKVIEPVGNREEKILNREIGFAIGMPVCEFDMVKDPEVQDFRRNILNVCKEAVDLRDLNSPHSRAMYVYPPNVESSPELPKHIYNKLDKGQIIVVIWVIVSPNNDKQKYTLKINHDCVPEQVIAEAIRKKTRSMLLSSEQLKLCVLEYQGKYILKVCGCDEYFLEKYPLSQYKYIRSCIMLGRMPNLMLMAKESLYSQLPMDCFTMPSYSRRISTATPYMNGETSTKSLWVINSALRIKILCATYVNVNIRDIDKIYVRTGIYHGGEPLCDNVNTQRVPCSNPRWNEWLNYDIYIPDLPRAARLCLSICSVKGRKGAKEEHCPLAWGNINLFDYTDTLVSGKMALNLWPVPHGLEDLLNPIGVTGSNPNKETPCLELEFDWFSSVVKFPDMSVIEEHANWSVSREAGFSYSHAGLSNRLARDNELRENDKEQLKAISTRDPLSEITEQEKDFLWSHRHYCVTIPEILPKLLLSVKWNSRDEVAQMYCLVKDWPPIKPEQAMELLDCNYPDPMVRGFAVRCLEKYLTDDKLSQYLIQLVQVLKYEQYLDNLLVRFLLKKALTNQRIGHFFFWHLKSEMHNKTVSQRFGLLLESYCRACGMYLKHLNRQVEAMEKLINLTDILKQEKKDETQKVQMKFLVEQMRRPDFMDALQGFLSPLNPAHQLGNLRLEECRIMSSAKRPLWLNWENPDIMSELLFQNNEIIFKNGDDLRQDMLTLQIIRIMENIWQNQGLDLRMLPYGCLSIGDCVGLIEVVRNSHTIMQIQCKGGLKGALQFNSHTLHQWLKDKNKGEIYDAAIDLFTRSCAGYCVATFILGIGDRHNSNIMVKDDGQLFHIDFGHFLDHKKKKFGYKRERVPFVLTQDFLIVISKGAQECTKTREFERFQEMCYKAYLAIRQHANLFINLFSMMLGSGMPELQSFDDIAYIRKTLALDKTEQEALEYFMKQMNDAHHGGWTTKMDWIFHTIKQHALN
Sequence of p110α (P27986 whole entry partner, species assumed): as the sequence (P27986 whole entry partner, species assumed) above
Sequence of p110δ (O00329 whole entry, species assumed): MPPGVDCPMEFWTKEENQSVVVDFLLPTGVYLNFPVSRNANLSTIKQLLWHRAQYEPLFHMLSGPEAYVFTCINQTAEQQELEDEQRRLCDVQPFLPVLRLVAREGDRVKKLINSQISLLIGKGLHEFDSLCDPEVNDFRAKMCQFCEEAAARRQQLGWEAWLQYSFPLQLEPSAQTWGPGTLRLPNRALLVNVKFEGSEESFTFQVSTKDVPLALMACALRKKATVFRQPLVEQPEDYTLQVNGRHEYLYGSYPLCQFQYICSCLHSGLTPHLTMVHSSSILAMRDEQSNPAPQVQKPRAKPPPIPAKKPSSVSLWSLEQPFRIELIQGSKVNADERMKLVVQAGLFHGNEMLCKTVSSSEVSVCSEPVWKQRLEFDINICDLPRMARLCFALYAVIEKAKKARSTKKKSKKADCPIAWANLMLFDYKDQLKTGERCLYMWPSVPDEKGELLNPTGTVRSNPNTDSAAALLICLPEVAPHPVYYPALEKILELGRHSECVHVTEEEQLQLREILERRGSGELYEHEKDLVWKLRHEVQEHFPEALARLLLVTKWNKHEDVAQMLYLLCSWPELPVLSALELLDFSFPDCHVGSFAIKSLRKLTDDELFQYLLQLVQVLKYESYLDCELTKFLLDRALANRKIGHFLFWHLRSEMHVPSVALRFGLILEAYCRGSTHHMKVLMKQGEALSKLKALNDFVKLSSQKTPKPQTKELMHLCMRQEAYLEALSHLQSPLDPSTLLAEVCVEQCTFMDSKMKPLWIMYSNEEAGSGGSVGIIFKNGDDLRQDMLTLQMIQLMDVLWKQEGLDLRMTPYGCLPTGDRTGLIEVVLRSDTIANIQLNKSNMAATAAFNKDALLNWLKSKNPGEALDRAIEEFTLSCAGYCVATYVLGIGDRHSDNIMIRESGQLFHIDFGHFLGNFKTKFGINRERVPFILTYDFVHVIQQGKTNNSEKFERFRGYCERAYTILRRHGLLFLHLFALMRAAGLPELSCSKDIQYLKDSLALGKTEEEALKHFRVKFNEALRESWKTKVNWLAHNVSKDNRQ
Sequence of p110δ (P27986 whole entry partner, species assumed): as the sequence (P27986 whole entry partner, species assumed) above
Sequence of p110γ (P48736 whole entry, species assumed): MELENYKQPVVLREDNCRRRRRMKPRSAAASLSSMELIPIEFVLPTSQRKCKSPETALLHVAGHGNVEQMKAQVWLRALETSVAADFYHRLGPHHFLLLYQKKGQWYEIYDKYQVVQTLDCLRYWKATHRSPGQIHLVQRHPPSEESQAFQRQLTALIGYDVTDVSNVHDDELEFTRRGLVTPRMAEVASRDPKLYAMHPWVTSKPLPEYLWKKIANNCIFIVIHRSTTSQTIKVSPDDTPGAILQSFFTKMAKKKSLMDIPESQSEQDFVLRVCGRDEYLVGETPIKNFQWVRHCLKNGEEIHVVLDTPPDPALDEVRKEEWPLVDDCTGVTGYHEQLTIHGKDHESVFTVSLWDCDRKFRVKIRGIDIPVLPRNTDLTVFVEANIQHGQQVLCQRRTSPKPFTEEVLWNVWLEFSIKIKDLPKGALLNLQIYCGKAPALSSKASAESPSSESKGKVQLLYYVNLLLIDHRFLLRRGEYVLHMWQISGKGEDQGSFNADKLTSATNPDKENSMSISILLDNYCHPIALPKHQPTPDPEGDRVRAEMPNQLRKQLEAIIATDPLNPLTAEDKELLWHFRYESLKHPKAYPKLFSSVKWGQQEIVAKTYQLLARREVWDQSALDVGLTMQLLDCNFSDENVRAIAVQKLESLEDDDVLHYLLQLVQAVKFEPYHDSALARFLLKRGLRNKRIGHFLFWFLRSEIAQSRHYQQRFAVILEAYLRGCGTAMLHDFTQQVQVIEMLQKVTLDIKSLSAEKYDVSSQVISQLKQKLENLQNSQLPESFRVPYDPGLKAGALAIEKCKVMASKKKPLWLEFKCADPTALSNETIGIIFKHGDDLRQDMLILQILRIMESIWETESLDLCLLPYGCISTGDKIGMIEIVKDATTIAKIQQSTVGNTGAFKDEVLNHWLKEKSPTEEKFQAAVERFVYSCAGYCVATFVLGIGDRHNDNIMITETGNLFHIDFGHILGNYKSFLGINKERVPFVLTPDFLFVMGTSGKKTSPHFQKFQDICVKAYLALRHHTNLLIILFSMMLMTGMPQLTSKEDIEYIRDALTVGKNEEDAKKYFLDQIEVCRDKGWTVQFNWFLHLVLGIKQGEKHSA

**Q.** For `Cc1ccccc1-n1c(Cn2cnc3c(N)ncnc32)nc2cccc(C)c2c1=O` [IC87114], which “Effect on rhGM-CSF-mediated human neutrophil survival” value (Human neutrophils [1]; [9]) is on record?
**A.** failed to abrogate GM-CSF mediated survival

**Q.** Which results are given for `Oc1cccc(-c2nc(N3CCOCC3)c3oc4ncccc4c3n2)c1` [PI-103]?
**A.** Effect on rhGM-CSF-mediated human neutrophil survival (Human neutrophils [1]; inhibitor 10 µM): did indeed appear to inhibit the effects of rhGM-CSF on neutrophil apoptosis; Vacuole formation or necrosis in murine neutrophils [2]: did not exhibit significant vacuolation; Concentration giving maximal effect on rmGM-CSF survival effect [2, 10]: 3 µM; Effect on rmGM-CSF cytoprotective (survival) effect in murine neutrophils [2, 11]: blocked the rmGM-CSF survival effect; Effect on rmGM-CSF-induced survival, wild type neutrophils ([2]; PI-103 0.3 µM, C57BL/6, rmGM-CSF 0.1 ng/ml, 8 hours): had no effect on rmGM-CSF-induced survival of wild type neutrophils; Effect on rmGM-CSF-induced survival, p110γKO and p110δKOγKO neutrophils ([2]; PI-103 0.3 µM, rmGM-CSF 0.1 ng/ml, 8 hours): attenuated the rmGM-CSF survival effect; Effect on constitutive murine neutrophil apoptosis [2]: did not affect constitutive apoptosis; Morphological assessment of apoptosis in neutrophils treated with rhGM-CSF and inhibitor (Human neutrophils [3]; PI-103 10 µM): did not reveal classical apoptotic morphology; Cytoplasmic vacuolation of human neutrophils (Human neutrophils [3]): extensive cytoplasmic vacuolation was seen; IC50 against all PI3K Class I isoforms (PI3K Class I isoforms): submicromolar range; Effect on GM-CSF-induced PKB phosphorylation [4]: abolished; Cell accessibility [5]: PI-103 (pan class I) ^*

**Q.** Which IC50 (p110β) does the source give for `Cc1cc(NC(=O)CCNC(=O)Nc2nc(C)c(-c3ccc(-n4cccn4)cc3)s2)no1` [NVS-PI3-3] here?
**A.** 600 nM

**Q.** And the “Effect on rhGM-CSF-mediated human neutrophil survival” value (Human neutrophils [1]; [12])?
**A.** failed to affect GM-CSF-mediated survival

**Q.** What about the IC50 (p110δ) of the same molecule?
**A.** 3 nM

**Q.** What about the IC50 (Human neutrophils [6]; [13]) of the same molecule?
**A.** 525 nM

**Q.** And the IC50 (Human neutrophils [6]; [14])?
**A.** 44 nM

**Q.** And the IC50 (p110α)?
**A.** 180 nM

**Q.** What about the IC50 (p110γ) of the same molecule?
**A.** 310 nM

**Q.** For “rhGM-CSF: Recombinant human granulocyte-macrophage colony stimulating factor, obtained from R&D Systems”, which “Effect of GM-CSF on human neutrophil apoptosis” value (Human neutrophils [1]; 6–24 h) is on record?
**A.** delays human neutrophil apopotosis

**Q.** And the “Effect of rhGM-CSF on survival of neutrophils from exacerbating COPD patients” value ([7]; 10 ng/ml)?
**A.** caused a fully PI3K-dependent additional survival effect

**Q.** What does the source list for `O=C1NC(=O)/C(=C\c2ccc3nccnc3c2)S1` [AS605240]?
**A.** Effect on rhGM-CSF-mediated human neutrophil survival (Human neutrophils [1]; [9]): failed to abrogate GM-CSF mediated survival; Cell accessibility [5]: AS605240 (γ) ^*

**Q.** With `Cc1cc(C(C)Nc2ccccc2C(=O)O)c2nc(N3CCOCC3)cc(=O)n2c1` (centres unmarked) [HBC-417] as the molecule, how does the “Effect on rhGM-CSF-mediated human neutrophil survival” value (Human neutrophils [1]; [12]) read?
**A.** failed to affect GM-CSF-mediated survival

**Q.** For `O=c1cc(N2CCOCC2)oc2c(-c3ccccc3)cccc12` [LY294002], which “Effect on rhGM-CSF-mediated human neutrophil survival” value (Human neutrophils [1]; inhibitor 10 µM) is on record?
**A.** prevented rhGM-CSF-mediated human neutrophil survival

**Q.** What about the “Effect on reduced spontaneous apoptosis of neutrophils from exacerbating COPD patients” value [7] of the same molecule?
**A.** failed to restore the ability of exacerbating patient-derived neutrophils to undergo apoptosis in a timely fashion

**Q.** And the “Vacuole formation or necrosis in murine neutrophils” value [2]?
**A.** nor did it induce vacuole formation or necrosis

**Q.** What about the “Concentration giving maximal effect on rmGM-CSF survival effect” value [2, 10] of the same molecule?
**A.** 10 µM

**Q.** And the “Effect on rmGM-CSF cytoprotective (survival) effect in murine neutrophils” value [2, 11]?
**A.** abrogated the rmGM-CSF cytoprotective effect

**Q.** What about the “Effect on constitutive murine neutrophil apoptosis” value [2] of the same molecule?
**A.** had no effect on the rate of constitutive murine neutrophil apoptosis

**Q.** And the “Effect on constitutive human neutrophil apoptosis” value (Human neutrophils [8])?
**A.** without affecting the extent of constitutive neutrophil apoptosis

**Q.** And the “Cytoplasmic vacuolation of human neutrophils” value (Human neutrophils [3])?
**A.** not apparent

**Q.** And the “Effect on GM-CSF-induced PKB phosphorylation” value [4]?
**A.** abolished

**Q.** With `COC[C@H]1OC(=O)c2coc3c2[C@@]1(C)C1=C(C3=O)[C@@H]2CCC(=O)[C@@]2(C)C[C@H]1OC(C)=O` [Wortmannin] as the molecule, how does the “Effect on rhGM-CSF-mediated human neutrophil survival” value (Human neutrophils [1]; inhibitor 100 nM, replenished during culture) read?
**A.** blocked the anti-apoptotic effect of GM-CSF, although less completely than 10 µM LY294002

**Q.** And the “Effect on GM-CSF-induced PKB phosphorylation” value [4]?
**A.** abolished

**Q.** Which “Effect on rhGM-CSF-mediated human neutrophil survival” value (Human neutrophils [1]; [12]) does the source give for `NC(=O)[C@@H]1CCCN1C(=O)Nc1nc2ccc(-c3cnc(N)c(C(F)(F)F)c3)cc2s1` [NVS-PI3-2] here?
**A.** failed to affect GM-CSF-mediated survival

**Q.** With `O=c1[nH]c2ccccc2n1C1CCN(Cc2ccc(-c3nc4cc5nc[nH]c5cc4nc3-c3ccccc3)cc2)CC1` [AKT-i1/2] as the molecule, how does the “Effect on GM-CSF-mediated neutrophil survival” value (Human neutrophils [3]; increasing concentrations, morphology) read?
**A.** suppresses GM-CSF-mediated neutrophil survival

**Q.** For `CC(=O)c1ccc(-c2sc(NC(=O)NCCC(=O)NC(C)(C)C)nc2C)cc1` [NVS-PI3-4], which IC50 (p110β) is on record?
**A.** 250 nM

**Q.** And the “Effect on rhGM-CSF-mediated human neutrophil survival” value (Human neutrophils [1]; [12])?
**A.** failed to affect GM-CSF-mediated survival

**Q.** And the IC50 (p110δ)?
**A.** 750 nM

**Q.** What about the IC50 (Human neutrophils [6]; [13]) of the same molecule?
**A.** 4000 nM

**Q.** And the IC50 (Human neutrophils [6]; [14])?
**A.** 710 nM

**Q.** And the IC50 (p110α)?
**A.** 1800 nM

**Q.** For `CC#C[C@]1(O)CC[C@H]2[C@@H]3CCC4=CC(=O)CCC4=C3[C@@H](c3ccc(N(C)C)cc3)C[C@@]21C` [RU-486], which “Effect on reduced spontaneous apoptosis of neutrophils from exacerbating COPD patients” value [7] is on record?
**A.** lack of effect

B1: rmGM-CSF: Recombinant mouse granulocyte-macrophage colony stimulating factor, purchased from Peprotech (protein, UniProt P01587 18-141, looked up)
Granulocyte-macrophage …: APTRSPITVTRPWKHVEAIKEALNLLDDMPVTLNEEVEVVSNEFSFKKLTCVQTRLKIFEQGLRGNFTKLKGALNMTASYYQTYCPPTPETDCETQVTTYADFIDSLKTFLTDIPFECKKPGQK
**Q.** Which results are given for B1?
**A.** EC50 for delay of murine neutrophil apoptosis ([2]; C57BL/6 peripheral blood neutrophils, 8 hour, AnV/PI flow cytometry): 0.0075 ng/mL; Effect on murine neutrophil apoptosis ([2]; concentration-dependent, all time points studied (0–12 h)): significantly delayed
